Measured values: ChEMBL document CHEMBL3885881, “DrugMatrix”
Where “and” joins values, the source holds several entries; their conditions need not be identical. Equal entries are not always repeated.

Organism: Rattus norvegicus
Test: DrugMatrix - Regimen: Daily Repeat
Assay type: toxicity, organism-based, Sprague-Dawley
Set-up: regimen Daily Repeat, gender Male, age 6-8 weeks
Settings: in vivo, po, 0 mg/kg, route oral GAVAGE, dose level Control, vehicle .5 % CMC; for BASOPHIL / EOSINOPHIL / ERYTHROCYTE COUNT / HEMATOCRIT / HEMOGLOBIN / LEUKOCYTE COUNT / LYMPHOCYTE / MEAN CORPUSCULAR HEMOGLOBIN / MEAN CORPUSCULAR HEMOGLOBIN CONCENTRATION / MEAN CORPUSCULAR VOLUME / MONOCYTE / NEUTROPHIL / PLATELET COUNT / ABSOLUTE BASOPHIL / ABSOLUTE EOSINOPHIL / ABSOLUTE LYMPHOCYTE / ABSOLUTE MONOCYTE / ABSOLUTE SEGMENTED NEUTROPHIL: tissue Blood; for ALANINE AMINOTRANSFERASE / ALBUMIN / ALKALINE PHOSPHATASE / ASPARTATE AMINOTRANSFERASE / BLOOD UREA NITROGEN / CHLORIDE / CHOLESTEROL / CREATINE PHOSPHOKINASE / CREATININE / GLUCOSE / PHOSPHORUS / POTASSIUM / SODIUM / TOTAL BILIRUBIN / TOTAL PROTEIN / LACTATE DEHYDROGENASE / LIPASE / URIC ACID: tissue Plasma

With `Cc1ccc2cc3c(ccc4ccccc43)c3c2c1CC3` [3-METHYLCHOLANTHRENE] the BASOPHIL (72 h, time 3 day) was 0.52%, the EOSINOPHIL (72 h, time 3 day) was 0.48% and the “ERYTHROCYTE COUNT” value (72 h, time 3 day) was 6.68 x10E6/uL. The HEMATOCRIT (72 h, time 3 day) was 43.07%, the HEMOGLOBIN (72 h, time 3 day) was 13.48 G/DL and the “LEUKOCYTE COUNT” value (72 h, time 3 day) was 11.41 x10E3/uL. For the same compound, the LYMPHOCYTE (72 h, time 3 day) was 80.78%, the “MEAN CORPUSCULAR HEMOGLOBIN” value (72 h, time 3 day) was 20.2 pg and the “MEAN CORPUSCULAR HEMOGLOBIN CONCENTRATION” value (72 h, time 3 day) was 31.32 G/DL. The “MEAN CORPUSCULAR VOLUME” value (72 h, time 3 day) was 64.45 fL, the MONOCYTE (72 h, time 3 day) was 2.23% and the NEUTROPHIL (72 h, time 3 day) was 14.73%. For the same compound, the “PLATELET COUNT” value (72 h, time 3 day) was 1225.83 x10E3/uL, the “ALANINE AMINOTRANSFERASE” value (72 h, time 3 day) was 44.5 u/L and the ALBUMIN (72 h, time 3 day) was 3.62 G/DL. For the same compound, the “ALKALINE PHOSPHATASE” value (72 h, time 3 day) was 404.5 u/L, the “ASPARTATE AMINOTRANSFERASE” value (72 h, time 3 day) was 71.67 u/L and the “BLOOD UREA NITROGEN” value (72 h, time 3 day) was 15 mg/dL. For the same compound, the CHLORIDE (72 h, time 3 day) was 103 MEQ/L, the CHOLESTEROL (72 h, time 3 day) was 96.83 mg/dL and the “CREATINE PHOSPHOKINASE” value (72 h, time 3 day) was 236 u/L. It also gave a CREATININE (72 h, time 3 day) of 0.43 mg/dL, a GLUCOSE (72 h, time 3 day) of 186.83 mg/dL and a PHOSPHORUS (72 h, time 3 day) of 12.67 mg/dL. For the same compound, the POTASSIUM (72 h, time 3 day) was 7.1 MEQ/L, the SODIUM (72 h, time 3 day) was 147.33 MEQ/L and the “TOTAL BILIRUBIN” value (72 h, time 3 day) was 0.52 mg/dL. For the same compound, the “TOTAL PROTEIN” value (72 h, time 3 day) was 6.18 G/DL, the ABSOLUTE BASOPHIL (120 h, time 5 day) was 92 cells/µL and the ABSOLUTE EOSINOPHIL (120 h, time 5 day) was 52 cells/µL. It also gave an ABSOLUTE LYMPHOCYTE (120 h, time 5 day) of 6560 cells/µL, an ABSOLUTE MONOCYTE (120 h, time 5 day) of 160 cells/µL and an ABSOLUTE SEGMENTED NEUTROPHIL (120 h, time 5 day) of 1130 cells/µL. The BASOPHIL (120 h, time 5 day) was 1.14% and 0.92%, the EOSINOPHIL (120 h, time 5 day) was 0.68% and 0.43% and the “ERYTHROCYTE COUNT” value (120 h, time 5 day) was 7.51 x10E6/uL and 7.03 x10E6/uL. The HEMATOCRIT (120 h, time 5 day) was 46.04% and 46.55%, the HEMOGLOBIN (120 h, time 5 day) was 15.62 G/DL and 14.32 G/DL and the “LEUKOCYTE COUNT” value (120 h, time 5 day) was 8.03 x10E3/uL and 12.22 x10E3/uL. The LYMPHOCYTE (120 h, time 5 day) was 81.54% and 82.65%, the “MEAN CORPUSCULAR HEMOGLOBIN” value (120 h, time 5 day) was 20.84 pg and 20.35 pg and the “MEAN CORPUSCULAR HEMOGLOBIN CONCENTRATION” value (120 h, time 5 day) was 33.94 G/DL and 30.77 G/DL. For the same compound, the “MEAN CORPUSCULAR VOLUME” value (120 h, time 5 day) was 61.42 fL and 66.28 fL, the MONOCYTE (120 h, time 5 day) was 2% and 2.28% and the NEUTROPHIL (120 h, time 5 day) was 14.24% and 12.73%. For the same compound, the “PLATELET COUNT” value (120 h, time 5 day) was 1427.2 x10E3/uL and 1268.67 x10E3/uL, the “ALANINE AMINOTRANSFERASE” value (120 h, time 5 day) was 35.6 u/L and 44.5 u/L and the ALBUMIN (120 h, time 5 day) was 3.64 G/DL and 3.73 G/DL. For the same compound, the “ALKALINE PHOSPHATASE” value (120 h, time 5 day) was 233 u/L and 340.83 u/L, the “ASPARTATE AMINOTRANSFERASE” value (120 h, time 5 day) was 81 u/L and 66.5 u/L and the “BLOOD UREA NITROGEN” value (120 h, time 5 day) was 12 mg/dL and 13.33 mg/dL. The CHLORIDE (120 h, time 5 day) was 109.4 MEQ/L and 102.17 MEQ/L, the CHOLESTEROL (120 h, time 5 day) was 47.6 mg/dL and 82.17 mg/dL and the “CREATINE PHOSPHOKINASE” value (120 h, time 5 day) was 183.2 u/L and 146.67 u/L. For the same compound, the CREATININE (120 h, time 5 day) was 0.4 mg/dL and 0.35 mg/dL, the GLUCOSE (120 h, time 5 day) was 134.6 mg/dL and 186.17 mg/dL and the “LACTATE DEHYDROGENASE” value (120 h, time 5 day) was 89.4 u/L. For the same compound, the LIPASE (120 h, time 5 day) was 17.2 u/L, the PHOSPHORUS (120 h, time 5 day) was 13.02 mg/dL and 11.83 mg/dL and the POTASSIUM (120 h, time 5 day) was 7 MEQ/L and 6.47 MEQ/L. For the same compound, the SODIUM (120 h, time 5 day) was 149.6 MEQ/L and 148.83 MEQ/L, the “TOTAL PROTEIN” value (120 h, time 5 day) was 6.06 G/DL and 6.27 G/DL and the “URIC ACID” value (120 h, time 5 day) was 1.04 mg/dL. It also gave an ABSOLUTE BASOPHIL (2184 h, time 91 day) of 130 cells/µL, an ABSOLUTE EOSINOPHIL (2184 h, time 91 day) of 70 cells/µL and an ABSOLUTE LYMPHOCYTE (2184 h, time 91 day) of 8670 cells/µL. It also gave an ABSOLUTE MONOCYTE (2184 h, time 91 day) of 160 cells/µL, an ABSOLUTE SEGMENTED NEUTROPHIL (2184 h, time 91 day) of 1530 cells/µL and a BASOPHIL (2184 h, time 91 day) of 1.13%. For the same compound, the EOSINOPHIL (2184 h, time 91 day) was 0.66%, the “ERYTHROCYTE COUNT” value (2184 h, time 91 day) was 9.13 x10E6/uL and the HEMATOCRIT (2184 h, time 91 day) was 48.47%. For the same compound, the HEMOGLOBIN (2184 h, time 91 day) was 16.56 G/DL, the “LEUKOCYTE COUNT” value (2184 h, time 91 day) was 10.5 x10E3/uL and the LYMPHOCYTE (2184 h, time 91 day) was 81.63%. The “MEAN CORPUSCULAR HEMOGLOBIN” value (2184 h, time 91 day) was 18.16 pg, the “MEAN CORPUSCULAR HEMOGLOBIN CONCENTRATION” value (2184 h, time 91 day) was 34.14 G/DL and the “MEAN CORPUSCULAR VOLUME” value (2184 h, time 91 day) was 53.14 fL. For the same compound, the MONOCYTE (2184 h, time 91 day) was 1.53%, the NEUTROPHIL (2184 h, time 91 day) was 14.71% and the “PLATELET COUNT” value (2184 h, time 91 day) was 1280.22 x10E3/uL. The “ALANINE AMINOTRANSFERASE” value (2184 h, time 91 day) was 28.89 u/L, the ALBUMIN (2184 h, time 91 day) was 3.69 G/DL and the “ALKALINE PHOSPHATASE” value (2184 h, time 91 day) was 101.11 u/L. The “ASPARTATE AMINOTRANSFERASE” value (2184 h, time 91 day) was 70.67 u/L, the “BLOOD UREA NITROGEN” value (2184 h, time 91 day) was 16.78 mg/dL and the CHLORIDE (2184 h, time 91 day) was 104.56 MEQ/L. The CHOLESTEROL (2184 h, time 91 day) was 58.78 mg/dL, the “CREATINE PHOSPHOKINASE” value (2184 h, time 91 day) was 91.22 u/L and the CREATININE (2184 h, time 91 day) was 0.61 mg/dL. For the same compound, the GLUCOSE (2184 h, time 91 day) was 142.33 mg/dL, the “LACTATE DEHYDROGENASE” value (2184 h, time 91 day) was 81.67 u/L and the LIPASE (2184 h, time 91 day) was 13 u/L. The PHOSPHORUS (2184 h, time 91 day) was 7.54 mg/dL, the POTASSIUM (2184 h, time 91 day) was 6.27 MEQ/L and the SODIUM (2184 h, time 91 day) was 149.89 MEQ/L. The “TOTAL BILIRUBIN” value (2184 h, time 91 day) was 0.19 mg/dL, the “TOTAL PROTEIN” value (2184 h, time 91 day) was 7.12 G/DL and the “URIC ACID” value (2184 h, time 91 day) was 0.97 mg/dL. For the same compound, the ABSOLUTE BASOPHIL ([…], time 28 day) was 150 cells/µL, the ABSOLUTE EOSINOPHIL ([…], time 28 day) was 54 cells/µL and the ABSOLUTE LYMPHOCYTE ([…], time 28 day) was 8890 cells/µL. For the same compound, the ABSOLUTE MONOCYTE ([…], time 28 day) was 190 cells/µL, the ABSOLUTE SEGMENTED NEUTROPHIL ([…], time 28 day) was 2250 cells/µL and the BASOPHIL ([…], time 28 day) was 1.26%. The EOSINOPHIL ([…], time 28 day) was 0.46%, the “ERYTHROCYTE COUNT” value ([…], time 28 day) was 8.34 x10E6/uL and the HEMATOCRIT ([…], time 28 day) was 48.66%. The HEMOGLOBIN ([…], time 28 day) was 16.04 G/DL, the “LEUKOCYTE COUNT” value ([…], time 28 day) was 11.58 x10E3/uL and the LYMPHOCYTE ([…], time 28 day) was 76.74%. The “MEAN CORPUSCULAR HEMOGLOBIN” value ([…], time 28 day) was 19.2 pg, the “MEAN CORPUSCULAR HEMOGLOBIN CONCENTRATION” value ([…], time 28 day) was 32.92 G/DL and the “MEAN CORPUSCULAR VOLUME” value ([…], time 28 day) was 58.32 fL. The MONOCYTE ([…], time 28 day) was 1.76%, the NEUTROPHIL ([…], time 28 day) was 19.44% and the “PLATELET COUNT” value ([…], time 28 day) was 1282.6 x10E3/uL. For the same compound, the “ALANINE AMINOTRANSFERASE” value ([…], time 28 day) was 27 u/L, the ALBUMIN ([…], time 28 day) was 3.68 G/DL and the “ALKALINE PHOSPHATASE” value ([…], time 28 day) was 146.2 u/L. For the same compound, the “ASPARTATE AMINOTRANSFERASE” value ([…], time 28 day) was 66.6 u/L, the “BLOOD UREA NITROGEN” value ([…], time 28 day) was 12.4 mg/dL and the CHLORIDE ([…], time 28 day) was 104.6 MEQ/L.
